Measured values published in patent US10080747B2, “Nicotinic attenuation of CNS inflammation and autoimmunity” (priority 2008, dated 2018).
Like-named read-outs stand apart in the source and are kept apart here.

Assays:
[1] = test system: spinal cord of EAE mice; conditions: day 25 p.i., vs PBS
Method: Mice were anesthetized with pentobarbital and perfused by intracardiac puncture with 50 ml of cold PBS. Spinal cords were removed and fixed in 10% formalin/PBS. Paraffin-embedded longitudinal sections were prepared and stained for hematoxylin and eosin (H&E), luxol fast blue (LFB, myelin staining) and Biechowsky silver (axon staining). The percentages of spinal cord inflammation, demyelination and axonal damage per mouse were calculated by first determining the total white matter area for all spinal cord sections by manually tracing the regions. Next, the areas of spinal cord inflammation, demyelination and axonal damage were determined by manually tracing each section. Pathological changes in each spinal cord were scored as follows: 0 no changes; 1 focal area involvement; 2 <5% of total myelin area involved; 3 5-10% of total myelin area involved; 4 10-20% involved area; 5 >20% of total myelin area involved (Bai, X. F., et al., J Exp Med 200:447-458).

[2] = test system: MOG35-55-specific T cells; conditions: splenocytes day 11 p.i.
Text: Isotype-matched negative monoclonal antibodies were used as controls.

[3] = test system: Th cells
Method: Single cell suspensions (4×10^7 cells) were prepared and incubated at 37° C. for 3 days in round-bottom plates (2×10^6 cells/well) with or without antigens (MOG 10 μg/ml, PLP 10 µg/ml or Con A 2.5 μg/ml), and stimulated with PMA (20 ng/ml)/ionomycin (1 μg/ml)/brefeldin A (5 μg/ml) for another 5 h at 37° C. After harvesting, cells were stained for surface markers with fluorochrome-conjugated monoclonal antibodies including anti-CD3-PE/Cy5 (17A2), anti-CD4-APC/Cy7 (GK1.5), and anti-CD8α-PE/Cy7 (53-6.7) (BD Bioscience). Isotype-matched negative monoclonal antibodies were used as controls. For intracellular cytokine staining, after fixation and permeabilization with Cytofix/Cytoperm kit (BD Bioscience), anti-IFN-γ, anti-IL-4, anti-IL-10 and anti-IL-17 monoclonal antibody conjugated with Alexa 647 were used. All samples were analyzed on a FACSAria using Diva. To determine the percentage of cells producing cytokine, the value obtained with the isotype control was subtracted from that with specific antibody. For cytokine induction, supernatants were collected 3 days after in vitro boosting. IFN-γ, IL-10, IL-2 and TGF-β were measured by optEIA kits (PharMingen and eBioscience).

[4] = test system: MOG-specific antibodies
Method: MOG-reactive antibodies were quantified by enzyme-linked immunoabsorbent assay (ELISA). Briefly, microtiter plates (Corning Glass Works, Corning, N.Y., USA) were coated with 100 μl/well of murine MOG35-55 (10 μg/ml) at 4° C. overnight. After blocking with 10% fetal bovine serum, serum samples (day 11, peak stage after immunization) were added and incubated at 4° C. overnight. Plates were then incubated for 2 h with biotinylated rabbit anti-mouse IgG, IgG1, IgG2a, IgA, IgG3 and IgG2b (Invitrogen, Carlsbad, Calif., USA), followed by alkaline phosphatase-conjugated ABC reagent (Dakopatts; R&D systems, Minneapolis, Minn., USA). The color was developed with p-nitrophenyl-phosphate. Results were expressed as optical density (OD) at […].

[5] = test system: CNS mononuclear cells; conditions: day 11 p.i.
Method: For CNS cell isolates, at day 11 after EAE induction (peak stage), mice were sacrificed and perfused with PBS through the left heart ventricle to eliminate contaminating blood cells in the CNS. The CNS mononuclear cells were then isolated from five to six mice using Percoll gradients and stained for cell surface markers. Antibodies were directly labeled and analyzed as done for splenocytes. The absolute number of a particular cell subset was calculated by counting the total number of mononuclear cells isolated from the CNS of individual mice and multiplying by the percentage of those cells acquired by FACSAria flow cytometry (Bai, X. F., et al., J Exp Med 200:447-458).

[6] = test system: acute EAE in B6 mice; conditions: for mean clinical score, remaining mild motor deficit after recovery: PBS 2.75±0.25; for mean maximal clinical score: scale 0 to 5, PBS 4.25±0.80
[7] = test system: adoptively transferred EAE in B6 mice; conditions: recipients of T cells from nicotine-treated donors
[8] = test system: spleen mononuclear cells; conditions: day 11 p.i.
[9] = test system: spleen mononuclear cells; conditions: annexin V and PI double staining, at the current dose (13 mg/kg/d)
Method: Cell viability was assessed by trypan blue dye exclusion. […] Single cell suspensions were washed in PBS and resuspended in binding buffer containing annexin V-FITC and propidium iodide (PI) (both from BD Biosciences) for 20 min at room temperature. The samples were analyzed on a FACSAria using Diva.

[10] = supernatants of splenocytes cultured with MOG35-55, vs controls
[11] = serum day 11 after immunization, vs control mice
[12] = nicotine pre-treated group (day −7)

Q: How did the “axonal damage, Biechowsky silver” value [1] turn out when `CN1CCCC1c1cccnc1` (centres unmarked) [nicotine] was run?
A: scarcely affected

Q: And the “demyelination, LFB staining” value [1]?
A: myelin sheets were largely preserved

Q: What about the “spinal cord inflammation (cellular infiltration), H&E” value [1] of the same compound?
A: few infiltrating cells

Q: What about the “T cell proliferation in response to MOG, 3H incorporation” value ([2]; p<0.05 vs PBS) of the same compound?
A: far fewer T cells

Q: And the “proliferation of CD3+, CD4+ and CD8+ T cells in response to MOG, CFSE assay” value ([2]; vs PBS)?
A: reduced proliferation

Q: What about the “production of TGF-β1” value ([3]; supernatants of splenocytes cultured with MOG35-55, p<0.01) of the same compound?
A: significantly augmented

Q: And the “production of IL-10” value ([3]; supernatants of splenocytes cultured with MOG35-55, p<0.05)?
A: significantly augmented

Q: And the IFN-γ production [3, 10]?
A: significant decrease

Q: And the “production of IL-2” value [3, 10]?
A: decreased

Q: And the “MOG-specific IgG2b production” value ([4]; mouse, in vivo)?
A: profoundly impaired

Q: What about the “MOG-specific IgA synthesis” value [4, 11] of the same compound?
A: markedly increased

Q: And the “MOG-specific IgG1 synthesis” value [4, 11]?
A: markedly increased

Q: And the “CD11b+ (macrophage/microglia) and CD11c+ (dendritic) cells in the CNS” value ([5]; vs PBS)?
A: lower percentages and absolute numbers

Q: What about the “expression of MHC class II, CD80 and CD86 on CNS CD11c and CD11b cells” value ([5]; vs PBS) of the same compound?
A: reduced

Q: What about the “numbers of T cells (CD3+, CD4+, CD8+) and B cells (CD3−CD19+) in the CNS” value ([5]; vs PBS-treated EAE mice) of the same compound?
A: drastically reduced

Q: And the “onset of EAE” value ([6]; nicotine 13 mg/kg/d for 7 days by minipump, prior to or on the day of disease induction, PBS controls 7.6±0.53 days)?
A: ≥ 10 day p.i.

Q: And the “day by which the majority of animals recovered” value [6, 12]?
A: ≤ 21 days

Q: And the “mean clinical score, remaining mild motor deficit after recovery” value [6, 12]?
A: 0.83±0.26

Q: What about the “day by which the majority of animals recovered” value ([6]; nicotine-treated group (day 0)) of the same compound?
A: ≤ 24 days

Q: What about the “mean clinical score, remaining mild motor deficit after recovery” value ([6]; nicotine-treated group (day 0)) of the same compound?
A: 0.85±0.25

Q: What about the “mean maximal clinical score” value ([6]; pre-treatment starting day −7, 13 mg/kg/d x 7) of the same compound?
A: 3.17±0.78

Q: And the “mean maximal clinical score” value ([6]; treatment starting day 0 after immunization, 13 mg/kg/d x 7)?
A: 3.13±0.25

Q: What about the “severity of EAE compared with PBS” value ([6]; treatment starting day 7 p.i. when EAE signs began, 13 mg/kg/d x 7) of the same compound?
A: significantly milder EAE

Q: What about the “mean clinical score at the termination of experiments” value ([6]; treatment starting day 7 p.i., 13 mg/kg/d x 7) of the same compound?
A: 0.69±0.43

Q: What about the mean clinical score [7] of the same compound?
A: 1.0±0.15

Q: What about the maximal clinical score ([7]; control 5.0±0.25) of the same compound?
A: 2.5±0.82

Q: What about the “percentages and numbers of CD3+, CD4+ and CD8+ T cells and CD19+CD3− B cells among splenocytes” value ([8]; nicotine from day 0, vs control EAE mice, p<0.05) of the same compound?
A: various degrees of reductions

Q: And the “expression of Foxp3” value ([8]; spleen, vs PBS)?
A: clearly augmented

Q: What about the “NK cells, NKT cells and CD4+CD25+ regulatory T cells in spleen” value ([8]; vs PBS) of the same compound?
A: did not differ significantly

Q: What about the “expression of MHC class II, CD80 and CD86 on peripheral CD11c+ and CD11b+ cells” value ([8]; vs PBS) of the same compound?
A: reductions in the expression of MHC class II, CD80 and CD86 were notable

Q: And the “numbers and percentages of CD11c+ and CD11b+ cells in spleen” value ([8]; vs PBS)?
A: not dramatically altered

Q: And the “T cell apoptosis and death” value [9]?
A: did not induce T cell apoptosis
